Experimental data taken from US20240390296A1, “R-KETAMINE AND DERIVATIVE THEREOF AS PROPHYLACTIC OR THERAPEUTIC AGENT FOR NEURODE[…] OR R[…]” (National University Corporation Chiba University, priority 2017, published 2024).

How the values were obtained:
[1] = tested on: animal model of Parkinson's disease; conditions: 50 mg/kg (anesthetic dose), cited from earlier work
MPTP-treated mice = assay: MPTP mouse model of Parkinson's disease, DAT immunohistochemistry in the striatum; assay type: in vivo
Text: A Parkinson's disease model animal (Jackson-Lewis V. et al. Protocol for the MPTP mouse model of Parkinson's disease. Nat Protoc. 2007; 2 (1): 141-51.), which is a representative Parkinson's disease animal model and has been used by a number of research groups so far, was used to study the therapeutic effect of R-ketamine and S-ketamine on the loss of the dopamine nervous system in the brain of the model animal.
The creation of the Parkinson's disease model animal and the administration of the drug were specifically carried out as described below (FIG. 1). As the mouse, a male C57BL/6N mouse (12 weeks of age, SLC Japan Co., Ltd., Hamamatsu, Japan) was purchased. Mice had free access to water and food. For the experiment, those above 14 weeks of age were used. On the first day of the experiment, physiological saline (5 mL/kg body weight) or MPTP (10 mg/kg body weight) was intraperitoneally administered three times at two hours intervals. Three hours after the final administration, R-ketamine (10 mg/kg body weight) or S-ketamine (10 mg/kg body weight), or a vehicle (physiological saline 0.5 mL/kg) was intranasally administered. Similarly, from the second day to the seventh day of the experiment, R-ketamine (10 mg/kg body weight) or S-ketamine (10 mg/kg body weight), or the vehicle (physiological saline 0.5 mL/kg) was intranasally administered. (A) is a group administered with physiological saline+physiological saline, (B) is a group administered with MPTP+physiological saline, (C) is a group administered with MPTP+R-ketamine, and (D) is a group administered with MPTP+S-ketamine. On the eighth day of the experiment, mice were perfused and fixed, and immunohistochemistry of dopamine transporter (DAT) was carried out. The immunohistochemistry of DAT was photographed with a microscope equipped with a CCD camera (Olympus IX70, Tokyo, Japan), and the shading was analyzed using SCION IMAGE software. Representative immunohistochemical photographs were taken with a Keyence microscope (BZ-9000, Osaka, Japan).
Statistical analysis was carried out by one-way analysis of variance (one-way ANOVA) followed by Tukey's test (Tukey HSD test). Data are expressed as mean±standard error (n=7 to 8 mouse/group). * p<0.05, ** p<0.01, and *** p<0.001 show significant differences compared to the (B) group of mice treated with MPTP+physiological saline.
The test was carried out in the same manner as in the test in FIG. 1 except that R-ketamine (10 mg/kg body weight) or the vehicle (physiological saline 0.5 mL/kg) was intranasally administered once (FIG. 4). There were a group administered with physiological saline+physiological saline, a group administered with MPTP+physiological saline, and a group administered with MPTP+R-ketamine.
The test was carried out in the same manner as in the test in FIG. 1 except that R-norketamine (10 mg/kg body weight) or S-norketamine (10 mg/kg body weight) was administered (FIG. 6). There were a group administered with physiological saline+physiological saline, a group administered with MPTP+physiological saline, a group administered with MPTP+R-norketamine, and a group administered with MPTP+S-norketamine.
The test was carried out in the same manner as in the test in FIG. 1 except that ANA-12 (0.5 mg/kg), an antagonist of the TrkB receptor for brain-derived neurotrophic factor (BDNF: Brain-derived Neurotrophic Factor), was administered before the administration of R-ketamine. (FIG. 8). It should be noted that in FIG. 8, ANA-12 is described as ANA. There was a group administered with physiological saline+physiological saline, a group administered with MPTP+physiological saline, a group administered with MPTP+R-ketamine, a group administered with MPTP+R-ketamine+ANA-12, and a group administered with MPTP+ANA-12.

[2] = animal experiments, non-patent literature 5; cited from earlier work
α-synuclein-treated mice = assay: Lewy body dementia model (intracerebroventricular α-synuclein), novel object recognition test (NORT); assay type: in vivo, mouse; conditions: 10 mg/kg intraperitoneal once a day, day 2 to day 10; test session day 15; male ICR mice
Text: The therapeutic effects of R-ketamine and S-ketamine on cognitive dysfunction were studied using animal models of Lewy body dementia and diseases caused by α-synuclein aggregation (intracerebroventricular administration of α-synuclein), which have been used by a number of research groups so far.
The creation of the Lewy body dementia model animal and the administration of the drugs were specifically carried out as described below (FIG. 12). As the mouse, a male ICR mouse (five weeks of age, SLC Japan Co., Ltd., Hamamatsu, Japan) was purchased. Mice had free access to water and food. First, α-synuclein (StressMarq @ Bioscience, Cat #: SPR-322) was incubated at 37° C. for four days to let aggregate. On the first day of the experiment, mice were anesthetized with isoflurane and pentobarbital, and placed on a mouse brain fixation apparatus. Physiological saline (6 μL) or α-synuclein (6 μg) was administered intracerebroventricularly. […]
Statistical analysis was carried out by one-way analysis of variance (one-way ANOVA) followed by the Fisher's least significant difference test (Fisher's Least Significant Difference test). Data are expressed as mean±standard error (n=4 mouse/group). * p<0.05 and ** p<0.01 show significant differences compared to the group of mice treated with α-synuclein+physiological saline.

β-amyloid-treated mice = assay: Alzheimer's disease model (intracerebroventricular β-amyloid), novel object recognition test (NORT); assay type: in vivo, mouse; conditions: 10 mg/kg intraperitoneal once a day, day 2 to day 10; test session day 15; male ICR mice
Text: Using an animal model of Alzheimer's disease (intracerebroventricular administration of β-amyloid), which has been used by a number of research groups so far, the therapeutic effect of R-ketamine and S-ketamine on the cognitive dysfunction was studied.
The creation of the Alzheimer's disease model animal and the administration of the drug were specifically carried out as described below (FIG. 10). As the mouse, a male ICR mouse (five weeks of age, SLC Japan Co., Ltd., Hamamatsu, Japan) was purchased. Mice had free access to water and food. First, β-amyloid (BACHEM, Cat. #: H-1192.0005) was incubated at 37° C. for four days to let aggregate. On the first day of the experiment, mice were anesthetized with isoflurane and pentobarbital, and placed on a mouse brain fixation apparatus. Distilled water (6 μL) or β-amyloid (6 μg) was administered intracerebroventricularly. […] On the 14th day of the experiment, two objects having different shapes and colors were placed on the NORT apparatus at a distance of 35.5 cm, and the time for searching for each object was measured. […] The time to search for two objects was measured, and the ratio of the time to search for a new object to the time to search for the two objects in the test session on the second day was calculated. […]

NMDA receptor = conditions: non-patent literature 4; cited from earlier work
[3] = 10 mg/kg intranasal, day 1 (3 h after last MPTP) to day 7, DAT on day 8, male C57BL/6N mice

Which “neuroprotective effect in an animal model of Parkinson's disease” value ([1]; non-patent literature 2) does the source give for CNC1(c2ccccc2Cl)CCCCC1=O (racemic) [RS-ketamine] here?
Its value is “has a neuroprotective effect”.

And the “side effects such as an acute activity increase effect” value [1]?
Its value is “notably observed”.

With O=C(Nc1ccccc1C(=O)NC1CCCCNC1=O)c1cc2ccccc2s1 (centres unmarked) [ANA-12] as the compound, how does the “MPTP-induced decrease in DAT density” value (MPTP-treated mice; ANA-12 alone, 0.5 mg/kg) read?
The value was “did not affect MPTP-induced decrease in DAT density”.

With CN[C@@]1(c2ccccc2Cl)CCCCC1=O [R-ketamine] as the compound, how does the “side effects (psychotic disorder triggering effect, drug dependency, and the like) compared with S-ketamine” value [2] read?
Its value is “fewer side effects”.

And the “MPTP-induced decrease in DAT density in the striatum” value (MPTP-treated mice; [3])?
The value was “significantly improved the decrease in DAT density”.

And the “MPTP-induced decrease in DAT density in the striatum” value (MPTP-treated mice; 10 mg/kg intranasal, single administration)?
The value was “suppressed MPTP-induced decrease in DAT density”.

And the “MPTP-induced decrease in DAT density in the striatum” value (MPTP-treated mice; R-ketamine 10 mg/kg intranasal with ANA-12 (0.5 mg/kg) administered before)?
The value was “No effect of R-ketamine was observed”.

And the “decrease in cognitive function caused by α-synuclein administration (NORT)” value (α-synuclein-treated mice)?
The value was “significantly improved the decrease in cognitive function”.

And the “decrease in cognitive function caused by β-amyloid administration (NORT)” value (β-amyloid-treated mice)?
Its value is “significantly improved the decrease in cognitive function”.

Which “MPTP-induced decrease in DAT density in the striatum” value (MPTP-treated mice; [3]) does the source give for N[C@@]1(c2ccccc2Cl)CCCCC1=O [R-norketamine] here?
The value was “did not suppress MPTP-induced decrease in DAT density”.

With CN[C@]1(c2ccccc2Cl)CCCCC1=O [S-ketamine] as the compound, how does the “MPTP-induced decrease in DAT density in the striatum” value (MPTP-treated mice; [3]) read?
Its value is “did not improve the decrease in DAT density”.

And the “affinity for the NMDA receptor relative to R-ketamine” value (NMDA receptor)?
Its value is “about four times higher than R-ketamine”.

And the “decrease in cognitive function caused by β-amyloid administration (NORT)” value (β-amyloid-treated mice)?
Its value is “did not improve the decrease in cognitive function”.

Which “MPTP-induced decrease in DAT density in the striatum” value (MPTP-treated mice; [3]) does the source give for N[C@]1(c2ccccc2Cl)CCCCC1=O [S-norketamine] here?
Its value is “did not suppress MPTP-induced decrease in DAT density”.
